# From US7271198B2, “Method of treating autoimmune diseases” (Wake Forest University, priority 2000, dated 2007)
# Tests used:
# [1] = tested on: IL-10 mRNA; experiment: IL-10 mRNA in MRL/lpr splenocytes; type: cell-based, mouse
# Method: In investigating whether TSA down-regulates IL-10 mRNA, MRL/lpr splenocytes were treated with increasing concentrations of TSA. The heightened, constitutive expression of IL-10 mRNA confirms previous findings (FIGS. 11A & 11B, lane 1). […] To address whether TSA and SAHA down-regulate LPS- and IFN-γ induced IL-10 transcript, splenocytes from 10-wk old MRL/lpr mice were treated in the absence or presence of TSA or SAHA for 18 hr before LPS and IFN-γ stimulation for 6 or 18 hr.
# [2] = tested on: acetylated H3 and H4 histones; experiment: Western immunoblot of acetylated H3 and H4 histones in SLE PBMCs; type: cell-based, human; settings: 1000 ng/ml TSA or 20 μM SAHA, 18 hr
# Method: The effect of TSA and SAHA was examined to determine if HDIs induce accumulation of acetylated histones in SLE PBMCs on the level of histone acetylation in SLE PBMCs. Following culture of PBMCs in the presence of vehicle, 1000 ng/ml TSA or 20 μM SAHA for 18 hr, histones were isolated.
# [3] = tested on: SP1 binding; experiment: SP1 binding at TGF-β1 promoter; type: cell-based, human; settings: after treatment with TSA
# Text: Exposure of SLE PBMCs to TSA and SAHA yielded an eight-fold increase in TGF-β1 transcript and a 30% rise in the synthesis of TGF-β1 protein. This enhanced transcriptional activation was temporally associated with increased acetylation of both H3 and H4 nucleosomal histones. […] The increase in total acetylated histones was not global; neither GAPDH nor G6PD genes were transcriptionally activated. […] Thus, the capacity of HDIs to increase the endogenous synthesis of TGF-β1 raises the possibility that these inhibitors could be therapeutic candidates for the treatment of SLE, atherosclerosis, and osteoporosis in addition to cancers.
# [4] = tested on: TGF-β1 gene chromatin; experiment: DNase I sensitivity assay of TGF-β1 gene in SLE PBMCs; type: cell-based, human
# Method: Because nuclease susceptibility is one of the characteristics of active chromatin, a DNase I sensitivity assay was used to examine chromatin conformation of the TGF-β1 gene in SLE PBMCs in the absence or presence of TSA. SLE PBMCs were treated with 1000 ng/ml of TSA for 18 hr, a treatment course shown previously to result in an optimal increase of TGF-β1 mRNA. Equal amounts of purified nuclei isolated from vehicle- or TSA-treated cells were exposed to increasing concentrations of DNase I (FIGS. 7A & 7B). Changes in DNase sensitivity were measured by a DNase I-PCR assay using 0.5 μg of DNA. As shown in the FIG. 7A, the cells treated with only vehicle were relatively resistant to DNase I digestion, even with use of higher concentrations of DNase I (0.25 μg/μl). In contrast, cells treated with TSA were digested in the lower concentration (0.025 μg/μl) of DNase I (FIG. 7B; lanes 3–6). […] There was no change in DNase I sensitivity at the G6PD gene promoter in vehicle- or TSA-treated SLE PBMCs (FIGS. 7A & 7B). Thus, it is likely that Trichostatin A increases DNase I sensitivity in the TGF-β1 gene of SLE PBMCs.
# [5] = tested on: IFN-γ mRNA; experiment: IFN-γ mRNA in MRL/lpr splenocytes; type: cell-based, mouse
# Method: In determining whether TSA can down-regulate IFN-γ mRNA, splenocytes from older, 24-wk MRL/lpr mice were treated with 0 to 500 ng/ml of TSA for 18 hr. […] Compared to splenocytes from 10-wk old mice that had low IFN-γ mRNA (FIG. 8B, lane 1), older mice had higher constitutive levels of IFN-γ transcripts normalized to the housekeeping gene, GAPDH (FIG. 8A, lane 1). […] Maximal inhibition of IFN-γ transcript consistently occurred at 500 ng/ml of TSA.
# To establish whether TSA or SAHA down-regulates Con A-induced IFN-γ mRNA expression, splenocytes from 10-wk old mice were stimulated with Con A (10 μg/ml) for 18 hr. From previous kinetic studies, IFN-γ mRNA is maximally expressed when T cells are activated for 18 hr. […] Thus, both TSA and SAHA inhibit IFN-γ. mRNA up-regulation in response to mitogenic stimulation.
# [6] = tested on: TGF-β1 protein; experiment: TGF-β1 protein secretion by PBMCs; type: cell-based, human
# Method: Gene expression of TGF-β1 was tested to determine if the gene expression is suppressed by deacetylation of histones in SLE. In this determination, SLE PBMCs or isolated T cells were treated with the histone deacetylase inhibitors (HDIs), TSA or SAHA, for 18hr. […] Subsequently, semi-quantitative PCR was performed to determine the amounts of […] transcripts in SLE and control T cells treated with vehicle or TSA (1000 ng/ml). […] There is no change in GAPDH transcript in normal and SLE T cells after treatment of HDIs. Increased TGF-β1 transcript was associated with a subsequent increase in TGF-β1 protein secretion by SLE PBMCs. When compared to vehicle treated PBMCs, total TGF-β1 protein in culture supernatants from SLE PBMCs increased by approximately 30%. In contrast, there was no increase in total TGF-β1 secretion in TSA treated cells in normal healthy controls. Similar results may be obtained by SAHA.
smiles,measurement,setting,value
"CC(/C=C/C(=O)NO)=C\[C@@H](C)C(=O)c1ccc(N(C)C)cc1 [TSA, Trichostatin A]",TSA dose that down-regulated IL-10 mRNA,"[1]; MRL/lpr splenocytes, constitutive expression",300 ng/mL
same,LPS- and IFN-γ induced IL-10 mRNA,"[1]; splenocytes from 10-wk old MRL/lpr mice pretreated 18 hr, stimulated 6 or 18 hr",no detectable IL-10 mRNA
same,accumulation of acetylated H3 and H4 histones,[2],induced the accumulation
same,SP1 binding after localized acetylation of the TGF-β1 promoter,[3],not associated with a concomitant increase
same,"increase in DNase I sensitivity, TGF-β1 promoter","[4]; SLE PBMCs, 1000 ng/ml TSA, 18 hr",three-fold
same,DNase I sensitivity at the G6PD gene promoter,[4]; vehicle- or TSA-treated SLE PBMCs,no change
same,Con A-induced up-regulation of IFN-γ transcript,"[5]; splenocytes from 10-wk old mice preincubated 18 hr, Con A 10 μg/ml 18 hr, vs vehicle",markedly reduced
same,TSA concentration of maximal inhibition of IFN-γ transcript,"[5]; splenocytes from 24-wk MRL/lpr mice, 0 to 500 ng/ml TSA, 18 hr",500 ng/mL
same,rise in the synthesis of TGF-β1 protein,[6]; SLE PBMCs exposed to TSA and SAHA (summary statement),30%
same,increase of total TGF-β1 protein in culture supernatants,"[6]; SLE PBMCs, compared to vehicle treated PBMCs",approximately 30%
same,total TGF-β1 secretion,[6]; TSA treated cells of normal healthy controls,no increase
